Measurements as given in article PMC8836076, “A Fungal Versatile GH10 Endoxylanase and Its Glycosynthase Variant: Synthesis of Xylooligosaccharides and Glycosides of Bioactive Phenolic Compounds” (International Journal of Molecular Sciences, 2022).

Molecular target: T1, rXynSOS (Talaromyces amestolkiae, UniProt A0A364LCP8, E255G)
T1 construct: gene BHQ10_009513; mature protein (389 aa, GH10 domain + C-terminal CBM1), 19-aa signal peptide removed, pPIC9 in Pichia pastoris GS115, no tag, starts QLNTAAK (from primer), glycosylated, 53 kDa monomer
Experiment: ESI-MS and NMR of xylooligosaccharide synthesis
Assay type: biochemical
Conditions: glycosynthase; 20 mM X2F as only reactant (donor and acceptor), 50 mM sodium acetate pH 5, 25 °C, 16 h

T1 sequence (A0A364LCP8 entry or part of it E255G): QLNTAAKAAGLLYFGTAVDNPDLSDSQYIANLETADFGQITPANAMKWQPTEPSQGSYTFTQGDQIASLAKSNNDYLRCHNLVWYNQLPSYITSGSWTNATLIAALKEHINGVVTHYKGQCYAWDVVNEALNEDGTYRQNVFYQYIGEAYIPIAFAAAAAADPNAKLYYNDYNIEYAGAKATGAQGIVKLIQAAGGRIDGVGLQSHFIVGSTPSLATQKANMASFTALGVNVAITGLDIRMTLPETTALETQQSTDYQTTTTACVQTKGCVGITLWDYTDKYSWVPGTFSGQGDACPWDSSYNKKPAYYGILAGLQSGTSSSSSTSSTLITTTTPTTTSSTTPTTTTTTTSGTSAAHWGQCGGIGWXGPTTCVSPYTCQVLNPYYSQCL

O[C@@H]1[C@@H](O)[C@H](O[C@@H]2CO[C@H](F)[C@H](O)[C@H]2O)OC[C@H]1O [X2F, xylobiose-fluoride]
ESI-MS and NMR of xylooligosaccharide synthesis: reaction with X2F as the only reactant molecule (no acceptor was added)
